# From PubChem BioAssay (NCI)
#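 Abbreviation: GI50, concentration required for 50% inhibition of growth. TGI is the concentration that stops growth completely.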
# What was measured:
# Assay in all cases: growth of human tumour cells (NCI), 384-well format
# K-562 leukemia = tested on: K-562 leukemia
# OVCAR-5 ovarian = tested on: OVCAR-5 ovarian
# SK-OV-3 ovarian = tested on: SK-OV-3 ovarian
# SF-268 CNS = tested on: SF-268 CNS
# HOP-92 NSCLC = tested on: HOP-92 NSCLC
# SNB-75 CNS = tested on: SNB-75 CNS
# SK-MEL-28 melanoma = tested on: SK-MEL-28 melanoma
# IGROV1 ovarian = tested on: IGROV1 ovarian
# HS 578T breast = tested on: HS 578T breast
# MDA-MB-468 breast = tested on: MDA-MB-468 breast
# A549 NSCLC = tested on: A549 NSCLC
# T-47D breast = tested on: T-47D breast
# PC-3 prostate = tested on: PC-3 prostate
# MDA-MB-435 melanoma = tested on: MDA-MB-435 melanoma
# CAKI-1 renal = tested on: CAKI-1 renal
# BT-549 breast = tested on: BT-549 breast
# UACC-257 melanoma = tested on: UACC-257 melanoma
# NCI-H226 lung = tested on: NCI-H226 lung
# A498 renal = tested on: A498 renal
# SK-MEL-2 melanoma = tested on: SK-MEL-2 melanoma
# OVCAR-4 ovarian = tested on: OVCAR-4 ovarian
# U251 glioblastoma = tested on: U251 glioblastoma
# RPMI-8226 leukemia = tested on: RPMI-8226 leukemia
# CCRF-CEM leukemia = tested on: CCRF-CEM leukemia
# MCF7 breast = tested on: MCF7 breast
# UO-31 renal = tested on: UO-31 renal
# HOP-62 NSCLC = tested on: HOP-62 NSCLC
# NCI-H23 lung = tested on: NCI-H23 lung
# MALME-3M melanoma = tested on: MALME-3M melanoma
# HCT-15 colon = tested on: HCT-15 colon
# SNB-19 CNS = tested on: SNB-19 CNS
# KM12 colon = tested on: KM12 colon
# OVCAR-8 ovarian = tested on: OVCAR-8 ovarian
# M14 melanoma = tested on: M14 melanoma
# HT29 colon = tested on: HT29 colon
# MDA-MB-231 breast = tested on: MDA-MB-231 breast
# ACHN renal = tested on: ACHN renal
# SN12C renal = tested on: SN12C renal
# LOX IMVI melanoma = tested on: LOX IMVI melanoma
# HCT-116 colon = tested on: HCT-116 colon
# SF-295 CNS = tested on: SF-295 CNS
# OVCAR-3 ovarian = tested on: OVCAR-3 ovarian
# NCI-H322M lung = tested on: NCI-H322M lung
# SF-539 CNS = tested on: SF-539 CNS
# 786-0 renal = tested on: 786-0 renal
# UACC-62 melanoma = tested on: UACC-62 melanoma
# RXF 393 renal = tested on: RXF 393 renal
# EKVX NSCLC = tested on: EKVX NSCLC
# NCI/ADR-RES ovarian = tested on: NCI/ADR-RES ovarian
# SW-620 colon = tested on: SW-620 colon
# NCI-H522 lung = tested on: NCI-H522 lung
# TK-10 renal = tested on: TK-10 renal
# HCC-2998 colon = tested on: HCC-2998 colon
# NCI-H460 NSCLC = tested on: NCI-H460 NSCLC
# MOLT-4 leukemia = tested on: MOLT-4 leukemia
# COLO 205 colon = tested on: COLO 205 colon
# DU-145 prostate = tested on: DU-145 prostate
# SK-MEL-5 melanoma = tested on: SK-MEL-5 melanoma
structure (smiles),measurement,setting,value
COc1cccc2c1C(=O)c1c(O)c3c(c(O)c1C2=O)C[C@@](O)(C(C)=O)C[C@@H]3OC1CC(N)C(O)C(C)O1 (some centres not stated),GI50,K-562 leukemia,14.6 nM
same,TGI,K-562 leukemia,138 nM
same,GI50,OVCAR-5 ovarian,105 nM
same,TGI,OVCAR-5 ovarian,325 nM
same,GI50,SK-OV-3 ovarian,36.7 nM
same,TGI,SK-OV-3 ovarian,181 nM
same,GI50,SF-268 CNS,25.4 nM
same,TGI,SF-268 CNS,181 nM
same,GI50,HOP-92 NSCLC,60 nM
same,TGI,HOP-92 NSCLC,3140 nM
same,GI50,SNB-75 CNS,108 nM
same,TGI,SNB-75 CNS,269 nM
same,GI50,SK-MEL-28 melanoma,103 nM
same,TGI,SK-MEL-28 melanoma,229 nM
same,GI50,IGROV1 ovarian,118 nM
same,TGI,IGROV1 ovarian,281 nM
same,GI50,HS 578T breast,45.4 nM
same,TGI,HS 578T breast,234 nM
same,GI50,MDA-MB-468 breast,10.7 nM
same,TGI,MDA-MB-468 breast,24 nM
same,GI50,A549 NSCLC,36.9 nM
same,TGI,A549 NSCLC,170 nM
same,GI50,T-47D breast,36.8 nM
same,TGI,T-47D breast,2140 nM
same,GI50,PC-3 prostate,85.9 nM
same,TGI,PC-3 prostate,282 nM
same,GI50,MDA-MB-435 melanoma,103 nM
same,TGI,MDA-MB-435 melanoma,260 nM
same,GI50,CAKI-1 renal,48.6 nM
same,TGI,CAKI-1 renal,440 nM
same,GI50,BT-549 breast,17.9 nM
same,TGI,BT-549 breast,94.7 nM
same,GI50,UACC-257 melanoma,90.2 nM
same,TGI,UACC-257 melanoma,216 nM
same,GI50,NCI-H226 lung,33.5 nM
same,TGI,NCI-H226 lung,282 nM
same,GI50,A498 renal,28.2 nM
same,TGI,A498 renal,199 nM
same,GI50,SK-MEL-2 melanoma,71 nM
same,TGI,SK-MEL-2 melanoma,142 nM
same,GI50,OVCAR-4 ovarian,165 nM
same,TGI,OVCAR-4 ovarian,701 nM
same,GI50,U251 glioblastoma,10 nM
same,TGI,U251 glioblastoma,1080 nM
same,TGI,RPMI-8226 leukemia,20.9 nM
same,TGI,CCRF-CEM leukemia,16.9 nM
same,GI50,MCF7 breast,21.5 nM
same,TGI,MCF7 breast,10500 nM
same,GI50,UO-31 renal,303 nM
same,TGI,UO-31 renal,1470 nM
same,GI50,HOP-62 NSCLC,19.4 nM
same,TGI,HOP-62 NSCLC,73.8 nM
same,GI50,NCI-H23 lung,21.9 nM
same,TGI,NCI-H23 lung,69.3 nM
same,GI50,MALME-3M melanoma,44.5 nM
same,TGI,MALME-3M melanoma,176 nM
same,GI50,HCT-15 colon,51.7 nM
same,TGI,HCT-15 colon,1010 nM
same,GI50,SNB-19 CNS,31.8 nM
same,TGI,SNB-19 CNS,13100 nM
same,GI50,KM12 colon,15.9 nM
same,TGI,KM12 colon,908 nM
same,GI50,OVCAR-8 ovarian,37 nM
same,TGI,OVCAR-8 ovarian,197 nM
same,GI50,M14 melanoma,21.8 nM
same,TGI,M14 melanoma,135 nM
same,GI50,HT29 colon,29.2 nM
same,TGI,HT29 colon,148 nM
same,GI50,MDA-MB-231 breast,24.3 nM
same,TGI,MDA-MB-231 breast,133 nM
same,GI50,ACHN renal,69.5 nM
same,TGI,ACHN renal,265 nM
same,GI50,SN12C renal,24.2 nM
same,TGI,SN12C renal,160 nM
same,GI50,LOX IMVI melanoma,19.3 nM
same,TGI,LOX IMVI melanoma,135 nM
same,GI50,HCT-116 colon,14.6 nM
same,TGI,HCT-116 colon,1970 nM
same,GI50,SF-295 CNS,32.1 nM
same,TGI,SF-295 CNS,114 nM
same,GI50,OVCAR-3 ovarian,78.1 nM
same,TGI,OVCAR-3 ovarian,566 nM
same,GI50,NCI-H322M lung,152 nM
same,TGI,NCI-H322M lung,433 nM
same,GI50,SF-539 CNS,13.5 nM
same,TGI,SF-539 CNS,115 nM
same,GI50,786-0 renal,31 nM
same,TGI,786-0 renal,1200 nM
same,GI50,UACC-62 melanoma,11.5 nM
same,TGI,UACC-62 melanoma,115 nM
same,GI50,RXF 393 renal,102 nM
same,TGI,RXF 393 renal,237 nM
same,GI50,EKVX NSCLC,283 nM
same,TGI,EKVX NSCLC,1650 nM
same,GI50,NCI/ADR-RES ovarian,1520 nM
same,TGI,NCI/ADR-RES ovarian,3390 nM
same,TGI,SW-620 colon,201 nM
same,TGI,NCI-H522 lung,90.9 nM
Cn1c(=O)c(F)c(Nc2ccc(I)cc2F)c2c(=O)n(C[C@@H](O)CO)cnc21,GI50,TK-10 renal,1140 nM
same,TGI,TK-10 renal,16900 nM
same,GI50,K-562 leukemia,11 nM
same,TGI,K-562 leukemia,15500 nM
same,GI50,HCC-2998 colon,< 10 nM
same,TGI,HCC-2998 colon,12.8 nM
same,GI50,OVCAR-5 ovarian,< 10 nM
same,TGI,OVCAR-5 ovarian,16900 nM
same,GI50,NCI-H460 NSCLC,< 10 nM
same,TGI,NCI-H460 NSCLC,30600 nM
same,GI50,SK-OV-3 ovarian,3340 nM
same,TGI,SK-OV-3 ovarian,21500 nM
same,GI50,SF-268 CNS,< 10 nM
same,TGI,SF-268 CNS,7630 nM
same,GI50,MOLT-4 leukemia,4010 nM
same,TGI,MOLT-4 leukemia,16300 nM
same,GI50,HOP-92 NSCLC,< 10 nM
same,TGI,HOP-92 NSCLC,179 nM
same,GI50,COLO 205 colon,< 10 nM
same,TGI,COLO 205 colon,< 10 nM
same,GI50,SNB-75 CNS,320 nM
same,TGI,SNB-75 CNS,17500 nM
same,GI50,SK-MEL-28 melanoma,< 10 nM
same,TGI,SK-MEL-28 melanoma,< 10 nM
same,GI50,IGROV1 ovarian,< 10 nM
same,TGI,IGROV1 ovarian,1110 nM
same,GI50,HS 578T breast,184 nM
same,TGI,HS 578T breast,11000 nM
same,GI50,MDA-MB-468 breast,387 nM
same,TGI,MDA-MB-468 breast,1620 nM
same,GI50,A549 NSCLC,< 10 nM
same,TGI,A549 NSCLC,9910 nM
same,GI50,T-47D breast,1530 nM
same,TGI,T-47D breast,22600 nM
same,GI50,PC-3 prostate,18500 nM
same,TGI,PC-3 prostate,53200 nM
same,GI50,MDA-MB-435 melanoma,< 10 nM
same,TGI,MDA-MB-435 melanoma,19900 nM
same,GI50,CAKI-1 renal,13.3 nM
same,TGI,CAKI-1 renal,19200 nM
same,GI50,BT-549 breast,2390 nM
same,TGI,BT-549 breast,23500 nM
same,GI50,UACC-257 melanoma,< 10 nM
same,TGI,UACC-257 melanoma,< 10 nM
same,GI50,NCI-H226 lung,< 10 nM
same,TGI,NCI-H226 lung,5390 nM
same,GI50,A498 renal,268 nM
same,TGI,A498 renal,12600 nM
same,GI50,OVCAR-4 ovarian,15600 nM
same,TGI,OVCAR-4 ovarian,55800 nM
same,GI50,U251 glioblastoma,60.3 nM
same,TGI,U251 glioblastoma,9750 nM
same,GI50,RPMI-8226 leukemia,11600 nM
same,TGI,RPMI-8226 leukemia,24800 nM
same,GI50,CCRF-CEM leukemia,10600 nM
same,TGI,CCRF-CEM leukemia,22800 nM
same,GI50,MCF7 breast,12400 nM
same,TGI,MCF7 breast,29000 nM
same,GI50,UO-31 renal,181 nM
same,TGI,UO-31 renal,1770 nM
same,GI50,HOP-62 NSCLC,< 10 nM
same,TGI,HOP-62 NSCLC,25200 nM
same,GI50,NCI-H23 lung,< 10 nM
same,TGI,NCI-H23 lung,29.6 nM
same,GI50,MALME-3M melanoma,< 10 nM
same,TGI,MALME-3M melanoma,< 10 nM
same,GI50,HCT-15 colon,466 nM
same,TGI,HCT-15 colon,19600 nM
same,GI50,SNB-19 CNS,783 nM
same,TGI,SNB-19 CNS,34500 nM
same,GI50,KM12 colon,< 10 nM
same,TGI,KM12 colon,13600 nM
same,GI50,OVCAR-8 ovarian,3680 nM
same,TGI,OVCAR-8 ovarian,18600 nM
same,GI50,DU-145 prostate,1990 nM
same,TGI,DU-145 prostate,36700 nM
same,GI50,M14 melanoma,< 10 nM
same,TGI,M14 melanoma,< 10 nM
same,GI50,SK-MEL-5 melanoma,< 10 nM
same,TGI,SK-MEL-5 melanoma,10700 nM
same,GI50,HT29 colon,< 10 nM
same,TGI,HT29 colon,11600 nM
same,GI50,MDA-MB-231 breast,< 10 nM
same,TGI,MDA-MB-231 breast,1110 nM
same,GI50,ACHN renal,1090 nM
same,TGI,ACHN renal,26900 nM
same,GI50,SN12C renal,< 10 nM
same,TGI,SN12C renal,17200 nM
same,GI50,LOX IMVI melanoma,< 10 nM
same,TGI,LOX IMVI melanoma,137 nM
same,GI50,HCT-116 colon,< 10 nM
same,TGI,HCT-116 colon,164 nM
same,GI50,SF-295 CNS,11500 nM
same,TGI,SF-295 CNS,25400 nM
same,GI50,OVCAR-3 ovarian,4320 nM
same,TGI,OVCAR-3 ovarian,19200 nM
same,GI50,NCI-H322M lung,18.5 nM
same,TGI,NCI-H322M lung,16600 nM
same,GI50,SF-539 CNS,215 nM
same,TGI,SF-539 CNS,10600 nM
same,GI50,786-0 renal,1620 nM
same,TGI,786-0 renal,17900 nM
same,GI50,UACC-62 melanoma,< 10 nM
same,TGI,UACC-62 melanoma,< 10 nM
same,GI50,RXF 393 renal,191 nM
same,TGI,RXF 393 renal,10400 nM
same,GI50,EKVX NSCLC,2080 nM
same,TGI,EKVX NSCLC,25500 nM
same,GI50,NCI/ADR-RES ovarian,12700 nM
same,TGI,NCI/ADR-RES ovarian,44600 nM
same,GI50,SW-620 colon,< 10 nM
same,TGI,SW-620 colon,11500 nM
same,GI50,NCI-H522 lung,929 nM
same,TGI,NCI-H522 lung,22700 nM
